Patent EP4389751A1, “HETEROCYCLIC COMPOUNDS AND USES THEREOF” (Kumquat Biosciences Inc., priority 2021, dated 2024)

Legend:
K-Ras G12S = molecular target: T1, K-Ras G12S (Homo sapiens, UniProt P01116, G12S); assay: HTRF assay of the K-Ras / SOS1 interaction; type: biochemical; conditions: IC50 (against K-Ras G12D) to IC50 (against K-Ras G12S)
T1 construct: made in house; host or cells: E. coli (e.g., BL21 (DE3))
Outline: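 Compounds (duplicates, 10 µM to 0.01 µM) were incubated ≥~10 min with Eu-labelled GST-K-Ras G12S and XL665-labelled His-hSOS1 in HEPES pH 7.4 buffer containing NaCl, DTT, BSA and Igepal. Disruption measured as HTRF emission ratio 665/620 nm, fitted to IC50.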

[1] = molecular target: T2, KRAS protein (His-tagged GDP-loaded G12S 1-169) (Homo sapiens, UniProt P01116, G12S); assay: Covalent modification of KRAS protein, intact-protein LC-MS; type: binding; conditions: 24hrs at room temperature, KRAS protein ~2 µM
T2 construct: His-tagged GDP-loaded G12S 1-169
Method: Test compounds are prepared as 10 mM stock solutions in DMSO (Fisher cat#BP231-100). KRAS protein (His-tagged GDP-loaded wildtype 1-169, His-tagged GDP-loaded G12S 1-169 or His-tagged GDP-loaded G12D 1-169) is diluted to ~2 µM in appropriate buffer (e.g., a Hepes buffer at physiological conditions). For testing KRAS modification, compounds are diluted to 50X final test concentration in DMSO in 96-well storage plates. 2 µl of the diluted 50X compounds are added to appropriate wells in the PCR plate (Fisher cat#AB-0800). […] of the stock protein solution is added to each well of the 96-well PCR plate. Reactions are mixed carefully. The plate is sealed well with aluminum plate seal, and stored in drawer at room temperature for 24hrs. 5 µl of 2% formic acid (Fisher cat#A1 17-50) in MilliQ H2O is then added to each well followed by mixing with a pipette. The plate is then resealed with aluminum seal and stored until mass spectrometry analysis.
The extent of covalent modification of KRAS proteins was determined by liquid chromatography electrospray mass spectrometry analysis of the intact proteins on a Thermo Q-Exactive Plus mass spectrometer. 20 µl of sample was injected onto a bioZen 3.6 µm Intact C4 column (Phenomenex cat#00B-4767-AN) placed in a column oven set to 40°C and separated using a suitable LC gradient from -20% to ~60% solvent B. Solvent A was 0.1% formic acid and solvent B was 0.1% formic acid in acetonitrile. HESI source settings were set to 40, 5 and 1 for the sheath, auxiliary and sweep gas flow, respectively. The spray voltage was 4 kV, and the capillary temperature was 320°C. S-lens RF level was 50 and auxiliary gas heater temperature was set to 200°C. The mass spectrometry was acquired using a scan range from 650 to 1750 m/z using positive polarity at a mass resolution of 70,000, AGC target of 1e6 ions and maximum injection time of 250ms. The recorded protein mass spectrum was deconvoluted from the raw data file using Protein Deconvolution v4.0 (Thermo). The protein mass and adduct masses were exported with their peak intensities. The peak intensities for the unmodified and modified protein were used to calculate the percent covalent modification of the KRAS protein based on the following equation: %KRAS protein modification = ((KRAS-compound) / (KRAS) + (KRAS-Compound)) *100.

GP2D cells = assay: Cell proliferation assay (CellTiter-Glo), K-Ras G12D cells; type: cell-based; conditions: GP2D cells (K-Ras G12D); read-out: Inhibition of GP2D Cells (IC50)
Outline: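 CellTiter-Glo luminescence, taken roughly 5 days after dosing, measured growth of G12D-mutant GP2D cells in DMEM/2 mM glutamine/10% FBS. Compound dilution series (e.g., 9 points, 3-fold) added the day after plating. Four-parameter fitting gave IC50.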

SMILES	Ratio of IC50 KRAS G12D vs. IC50 KRAS G12S (K-Ras G12S)	% G12S Modification at 24 hr. [1]	IC50 (GP2D cells)
N#Cc1c(N)sc2c(F)ccc(-c3c(Cl)cc4c(N5CC(F)(F)C6CN(C(=O)n7cncn7)CCC65)nc(OC[C@@]56CCCN5C[C@H](F)C6)nc4c3F)c12 (stereo partly drawn) [Compound A263, 2-amino-4-(6-chloro-4-(3,3-difluoro-5-(1H-1,2,4-triazole-1-carbonyl)octahydro-1H-pyrrolo[3,2-c]pyridin-1-yl)-8-fluoro-2-(((2R,7aS)-2-fluorotetrahydro-1H-pyrrolizin-7a(5H)-yl)methoxy)quinazolm-7-yl)-7-fluorobenzo[b]thiophene-3-carbonitrile]	A (A: indicates that the ratio of IC50 against KrasG12D vs. IC50 against KrasG12S is 1-fold or greater)	++ (++ indicates between about 1%- 20% labelling)	–
Cc1ncn(C(=O)N2CCCC(Oc3nc(OC[C@@]45CCCN4C[C@H](F)C5)nc4c(F)c(-c5ccc(F)c6sc(N)c(C#N)c56)c(Cl)cc34)C2)n1 (stereo partly drawn) [Compound A302, 2-amino-4-(6-chloro-8-fluoro-2-(((2R,7aS)-2-fluorotetrahydro-1H-pyrrolizin-7a(5H)-yl)methoxy)-4-((1-(3-methyl-1H-1,2,4-triazole-1-carbonyl)piperidin-3-yl)oxy)quinazolin-7-yl)-7-fluorobenzo[b]thiophene-3-carbonitrile]	A (A: indicates that the ratio of IC50 against KrasG12D vs. IC50 against KrasG12S is 1-fold or greater)	++ (++ indicates between about 1%- 20% labelling)	–
N#Cc1cccn1C(=O)N1CCN(c2nc(OC[C@@]34CCCN3C[C@H](F)C4)nc3c(F)c(-c4ccc(F)c5sc(N)nc45)c(Cl)cc23)CC(F)(F)C1 [Compound A114, 1-(4-(7-(2-amino-7-fluorobenzo[d]thiazol-4-yl)-6-chloro-8-fluoro-2-(((2R,7aS)-2-fluorotetrahydro-1H-pyrrolizin-7a(5H)-yl)methoxy)quinazolin-4-yl)-6,6-difluoro-1,4-diazepane-1-carbonyl)-1H-pyrrole-2-carbonitrile]	A (A: indicates that the ratio of IC50 against KrasG12D vs. IC50 against KrasG12S is 1-fold or greater)	+++ (+++ indicates greater than 20% labelling)	–
N#Cc1c(N)sc2c(F)ccc(-c3c(Cl)cc4c(OC5CCCCN(C(=O)n6cncn6)C5)nc(OC[C@@]56CCCN5C[C@H](F)C6)nc4c3F)c12 (stereo partly drawn) [Compound A169, 4-(4-((1-(1H-1,2,4-triazole-1-carbonyl)azepan-3-yl)oxy)-6-chloro-8-fluoro-2-(((2R,7aS)-2-fluorotetrahydro-1H-pyrrolizin-7a(5H)-yl)methoxy)quinazolin-7-yl)-2-amino-7-fluorobenzo[b]thiophene-3-carbonitrile]	A (A: indicates that the ratio of IC50 against KrasG12D vs. IC50 against KrasG12S is 1-fold or greater)	+++ (+++ indicates greater than 20% labelling)	–
N#Cc1c(N)sc2c(F)ccc(-c3ncc4c(N5CCOC6(CN(C(=O)n7cncn7)C6)C5)nc(OC[C@@]56CCCN5C[C@H](F)C6)nc4c3F)c12 [Compound A161, 4-(4-(2-(1H-1,2,4-triazole-1-carbonyl)-5-oxa-2,8-diazaspiro[3.5]nonan-8-yl)-8-fluoro-2-(((2R,7aS)-2-fluorotetrahydro-1H-pyrrolizin-7a(5H)-yl)methoxy)pyrido[4,3-d]pyrimidin-7-yl)-2-amino-7-fluorobenzo[b]thiophene-3-carbonitrile]	A (A: indicates that the ratio of IC50 against KrasG12D vs. IC50 against KrasG12S is 1-fold or greater)	+++ (+++ indicates greater than 20% labelling)	–
N#Cc1c(N)sc2c(F)ccc(-c3c(Cl)cc4c(O[C@@H]5CCN(C(=O)n6cncn6)C5)nc(OCC56CCCN5C[C@H](F)C6)nc4c3F)c12 (stereo partly drawn) [Compound A213, 4-(4-(((R)-1-(1H-1,2,4-triazole-1-carbonyl)pyrrolidin-3-yl)oxy)-6-chloro-8-fluoro-2-(((2R)-2-fluorotetrahydro-1H-pyrrolizin-7a(5H)-yl)methoxy)quinazolin-7-yl)-2-amino-7-fluorobenzo[b]thiophene-3-carbonitrile]	A (A: indicates that the ratio of IC50 against KrasG12D vs. IC50 against KrasG12S is 1-fold or greater)	++ (++ indicates between about 1%- 20% labelling)	–
Nc1nc2c(-c3c(Cl)cc4c(N5CCC6(CC5)CN(C(=O)n5cncn5)CCO6)nc(OC[C@@]56CCCN5C[C@H](F)C6)nc4c3F)ccc(F)c2s1 [Compound A225, (9-(7-(2-amino-7-fluorobenzo[d]thiazol-4-yl)-6-chloro-8-fluoro-2-(((2R,7aS)-2-fluorotetrahydro-1H-pyrrolizin-7a(5H)-yl)methoxy)quinazolin-4-yl)-1-oxa-4,9-diazaspiro [5.5]undecan-4-yl)(1H-1,2,4-triazol-1-yl)methanone]	A (A: indicates that the ratio of IC50 against KrasG12D vs. IC50 against KrasG12S is 1-fold or greater)	++ (++ indicates between about 1%- 20% labelling)	–
N#Cc1nccn1C(=O)N1CC2CN(c3nc(OC[C@@]45CCCN4C[C@H](F)C5)nc4c(F)c(-c5ccc(F)c6sc(N)nc56)c(Cl)cc34)CC2C1 (stereo partly drawn) [Compound A236, 1-(5-(7-(2-amino-7-fluorobenzo[d]thiazol-4-yl)-6-chloro-8-fluoro-2-(((2R,7aS)-2-fluorotetrahydro-1H-pyrrolizin-7a(5H)-yl)methoxy)quinazolin-4-yl)octahydropyrrolo[3,4-c]pyrrole-2-carbonyl)-1H-imidazole-2-carbonitrile]	A (A: indicates that the ratio of IC50 against KrasG12D vs. IC50 against KrasG12S is 1-fold or greater)	++ (++ indicates between about 1%- 20% labelling)	–
N#Cc1c(N)sc2c(F)ccc(-c3c(Cl)cc4c(N5CC6CCCN(C(=O)n7cncn7)C6C5)nc(OC[C@@]56CCCN5C[C@H](F)C6)nc4c3F)c12 (stereo partly drawn) [Compound A284, 4-(4-(1-(1H-1,2,4-triazole-1-carbonyl)octahydro-6H-pyrrolo[3,4-b]pyridin-6-yl)-6-chloro-8-fluoro-2-(((2R,7aS)-2-fluorotetrahydro-1H-pyrrolizin-7a(5H)-yl)methoxy)quinazolin-7-yl)-2-amino-7-fluorobenzo[b]thiophene-3-carbonitrile]	A (A: indicates that the ratio of IC50 against KrasG12D vs. IC50 against KrasG12S is 1-fold or greater)	+++ (+++ indicates greater than 20% labelling)	–
Cc1cnn(C(=O)N2CCN(c3nc(OC[C@@]45CCCN4C[C@H](F)C5)nc4c(F)c(-c5ccc(F)c6sc(N)nc56)c(Cl)cc34)CC(F)(F)C2)c1 [Compound A203, (4-(7-(2-amino-7-fluorobenzo[d]thiazol-4-yl)-6-chloro-8-fluoro-2-(((2R,7aS)-2-fluorotetrahydro-1H-pyrrolizin-7a(5H)-yl)methoxy)quinazolm-4-yl)-6,6-difluoro-1,4-diazepan-1-yl)(4-methyl-1H-pyrazol-1-yl)methanone]	A (A: indicates that the ratio of IC50 against KrasG12D vs. IC50 against KrasG12S is 1-fold or greater)	–	1 to 10 µM
